Data published in US8933230B2, “Phosphorus-containing group-substituted quinoline, its preparation process, medical composition containing the compounds and application” (priority 2011, dated 2015).
pIC50: −log10 of the molar value.

Assays:
[1] = target: T1, AAK1 (Homo sapiens, UniProt Q2M2I8); assay: KinomeScan kinase panel; assay type: binding
T1 construct: purchased DiscoveRx Corporation (KinomeScan)
Method: (§1) In this example, the compound prepared in Example 10, N1-[4-[[7-[[1-(diethoxyphosphorylmethyl)-4-piperidinyl]methoxyl]-6-methoxyl-4-quinolyl]oxyl]-3-fluorophenyl]-N1′-(4-fluorophenyl)cyclopropane-1,1-dicarboxamide is tested for the inhibitory effect in the 442-kinase panel of KinomeScan™ (www.kinomescan.com) from DiscoveRx Corporation (4215 Sorrento Valley Blvd, San Diego, Calif. 92121) at 1000 nM of the compound concentration, the results are shown in the following Table 5:
(§2) For the detailed information of the screening technique, see Fabian, M. A. et al, Nat., Biotechnol. 2005, 23, 329 and Karaman, M. W. et al, Nat., Biotechnol. 2008, 26, 127. It can be seen from the following representative results that, the compound according to the present invention has significant inhibitory effect on kinases including c-Met, KDR or VEGFR2, RET, PDGFR-β, c-KIT, Flt3, MEK5, DDR1, LOK, CSF1R, EPHA7, EPHA8, EPHB6, MKNK2, BLK, HIPK4, HCK, Flt4 and the mutants thereof

[2] = target: T2, AMPK-alpha2 (Homo sapiens, UniProt P54646); assay: KinomeScan kinase panel; assay type: binding
T2 construct: purchased DiscoveRx Corporation (KinomeScan)
Method: as §1, §2

[3] = target: T3, CDC2L5 (Homo sapiens, UniProt Q14004); assay: KinomeScan kinase panel; assay type: binding
T3 construct: purchased DiscoveRx Corporation (KinomeScan)
Method: as §1, §2

[4] = target: T4, CHEK1 (Homo sapiens, UniProt O14757); assay: KinomeScan kinase panel; assay type: binding
T4 construct: purchased DiscoveRx Corporation (KinomeScan)
Method: as §1, §2

[5] = target: T5, CSNK1G3 (Homo sapiens, UniProt Q9Y6M4); assay: KinomeScan kinase panel; assay type: binding
T5 construct: purchased DiscoveRx Corporation (KinomeScan)
Method: as §1, §2

[6] = target: T6, DAPK1 (Homo sapiens, UniProt P53355); assay: KinomeScan kinase panel; assay type: binding
T6 construct: purchased DiscoveRx Corporation (KinomeScan)
Method: as §1, §2

[7] = target: T7, DYRK2 (Homo sapiens, UniProt Q92630); assay: KinomeScan kinase panel; assay type: binding
T7 construct: purchased DiscoveRx Corporation (KinomeScan)
Method: as §1, §2

[8] = target: T8, HIPK2 (Homo sapiens, UniProt Q9H2X6); assay: KinomeScan kinase panel; assay type: binding
T8 construct: purchased DiscoveRx Corporation (KinomeScan)
Method: as §1, §2

[9] = target: T9, IKK-alpha (Homo sapiens, UniProt O15111); assay: KinomeScan kinase panel; assay type: binding
T9 construct: purchased DiscoveRx Corporation (KinomeScan)
Method: as §1, §2

[10] = target: T10, JAK1(JH2domain-pseudokinase) (Homo sapiens, UniProt P23458); assay: KinomeScan kinase panel; assay type: binding
T10 construct: JAK1(JH2domain-; purchased DiscoveRx Corporation (KinomeScan)
Method: as §1, §2

[11] = target: T11, MST4 (Homo sapiens, UniProt Q9P289); assay: KinomeScan kinase panel; assay type: binding
T11 construct: purchased DiscoveRx Corporation (KinomeScan)
Method: as §1, §2

[12] = target: T12, NDR1 (Homo sapiens, UniProt Q15208); assay: KinomeScan kinase panel; assay type: binding
T12 construct: purchased DiscoveRx Corporation (KinomeScan)
Method: as §1, §2

[13] = target: T13, RAF1 (Homo sapiens, UniProt P04049); assay: KinomeScan kinase panel; assay type: binding
T13 construct: purchased DiscoveRx Corporation
Method: as §1, §2

[14] = target: T14, TAOK3 (Homo sapiens, UniProt Q9H2K8); assay: KinomeScan kinase panel; assay type: binding
T14 construct: purchased DiscoveRx Corporation (KinomeScan)
Method: as §1, §2

[15] = target: T15, PFCDPK1 (P. falciparum) (Plasmodium falciparum, UniProt P62344); assay: KinomeScan kinase panel; assay type: binding
T15 construct: purchased DiscoveRx Corporation (KinomeScan)

[16] = target: T16, PFPK5 (P. falciparum) (Plasmodium falciparum, UniProt P61075); assay: KinomeScan kinase panel; assay type: binding
T16 construct: purchased DiscoveRx Corporation (KinomeScan)

[17] = target: T17, PKNB (M. tuberculosis) (Mycobacterium tuberculosis, UniProt P9WI81); assay: KinomeScan kinase panel; assay type: binding
T17 construct: purchased DiscoveRx Corporation (KinomeScan)

[18] = target: T18, PDGFR-β (Mus musculus, UniProt P05622); assay: PDGFR-β kinase phosphorylation in NIH3T3 cells (sandwich ELISA); assay type: cell-based; conditions: PDGF-BB 100 ng/mL 3 min, mean value of two testing results, read-out: IC50 values in the cell, PDGFR-β
T18 construct: cell line NIH3T3 having endogenous high expression wild type PDGFR-β; endogenous in cells; host or cells: NIH3T3
Method: (§3) Inhibitory activity on the kinases in tumor cells: In this example, the compound prepared in Example 10, N1-[4-[[7-[[1-(diethoxyphosphorylmethyl)-4-piperidinyl]methoxyl]-6-methoxyl-4-quinolyl]oxyl]-3-fluorophenyl]-N1′-(4-fluorophenyl)cyclopropane-1,1-dicarboxamide is tested in tumor cells by ProQinase GmbH corporation (Breisacher Str. 117, D-79106 Freiburg, Germany. www.proqinase.com) for the inhibitory activity on the following kinases: c-KIT, c-MET, VEGFR2 and PDGFR-β. The test includes the following steps:
(§4) Firstly, the compound according to present invention is dissolved in dimethyl sulfoxide (DMSO) to prepare a 10 mM stock solution, which is diluted serially according to the concentration range shown in Table 6:
PDGFR-β kinase: in the test experiment of PDGFR-beta kinase phosphorylation in the cells, mouse embryo fibroblast cell line NIH3T3 having endogenous high expression wild type PDGFR-β (wild-type PDGFR-β) is used. When these cells are simulated with mouse platelet-derived growth factor BB (PDGF-BB), it causes the tyrosine of PDGFR-beta receptor kinases self-phosphorylated. NIH3T3 cells are inoculated in DMEM culture solution containing 10% FCS in a multi-well cell culture dish. The compound of the invention is added to the cells after serum overnight starvation, then the cells are cultured in a medium without serum. […]

[19] = target: VEGFR2 (Homo sapiens, UniProt P35968); assay: VEGFR2 kinase phosphorylation in HUE cells (sandwich ELISA); assay type: cell-based; design: cell line HUE having endogenous high expression vascular endothelial growth factor-R2 (VEGFR2); endogenous in cells; host or cells: HUE; conditions: VEGF-A 100 ng/mL 3 min, mean value of two testing results, read-out: IC50 values in the cell, VEGFR2
Method: as §3, §4
VEGFR2 kinase: in the test experiment of VEGFR2 kinase phosphorylation in the cells, a spontaneous immortalized human umbilical vein endothelial cell line HUE having endogenous high expression vascular endothelial growth factor-R2 (VEGFR2) is used. When these cells are simulated with human vascular endothelial growth factor-A (VEGF-A), it causes the tyrosine of VEGFR2 receptor kinases self-phosphorylated. HUE cells are inoculated in endothelial cell growth medium (ECGM) containing 10% FCS in a multi-well cell culture dish. […]

T4 sequence (O14757 whole entry): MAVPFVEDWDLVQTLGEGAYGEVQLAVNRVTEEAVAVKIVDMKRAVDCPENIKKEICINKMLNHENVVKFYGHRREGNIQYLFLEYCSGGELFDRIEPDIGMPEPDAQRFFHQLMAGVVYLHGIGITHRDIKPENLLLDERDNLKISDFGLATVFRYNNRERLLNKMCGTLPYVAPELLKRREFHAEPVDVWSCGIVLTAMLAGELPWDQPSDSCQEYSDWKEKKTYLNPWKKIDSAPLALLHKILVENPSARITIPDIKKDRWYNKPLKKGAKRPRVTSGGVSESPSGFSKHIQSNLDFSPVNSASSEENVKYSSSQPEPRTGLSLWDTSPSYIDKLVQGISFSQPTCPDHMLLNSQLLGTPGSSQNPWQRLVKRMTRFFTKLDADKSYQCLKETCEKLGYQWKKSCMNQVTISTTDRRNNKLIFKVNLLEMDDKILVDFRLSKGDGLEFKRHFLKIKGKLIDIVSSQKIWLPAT
T2 sequence (P54646 whole entry): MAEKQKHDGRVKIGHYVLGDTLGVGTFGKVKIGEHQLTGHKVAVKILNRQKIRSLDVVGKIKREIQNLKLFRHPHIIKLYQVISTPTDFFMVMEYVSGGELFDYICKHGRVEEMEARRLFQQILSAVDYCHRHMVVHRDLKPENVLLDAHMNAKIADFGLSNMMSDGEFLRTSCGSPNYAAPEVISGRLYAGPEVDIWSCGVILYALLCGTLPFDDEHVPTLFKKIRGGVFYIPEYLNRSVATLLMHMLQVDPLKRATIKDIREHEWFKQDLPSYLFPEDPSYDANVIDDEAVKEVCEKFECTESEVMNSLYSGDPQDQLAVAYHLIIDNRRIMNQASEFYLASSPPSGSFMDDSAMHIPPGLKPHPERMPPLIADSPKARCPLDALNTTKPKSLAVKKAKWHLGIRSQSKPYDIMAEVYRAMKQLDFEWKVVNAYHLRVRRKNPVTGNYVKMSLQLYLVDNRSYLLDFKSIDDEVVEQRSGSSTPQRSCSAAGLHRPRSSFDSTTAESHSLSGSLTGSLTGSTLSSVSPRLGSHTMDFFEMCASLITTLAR
T15 sequence (P62344 whole entry): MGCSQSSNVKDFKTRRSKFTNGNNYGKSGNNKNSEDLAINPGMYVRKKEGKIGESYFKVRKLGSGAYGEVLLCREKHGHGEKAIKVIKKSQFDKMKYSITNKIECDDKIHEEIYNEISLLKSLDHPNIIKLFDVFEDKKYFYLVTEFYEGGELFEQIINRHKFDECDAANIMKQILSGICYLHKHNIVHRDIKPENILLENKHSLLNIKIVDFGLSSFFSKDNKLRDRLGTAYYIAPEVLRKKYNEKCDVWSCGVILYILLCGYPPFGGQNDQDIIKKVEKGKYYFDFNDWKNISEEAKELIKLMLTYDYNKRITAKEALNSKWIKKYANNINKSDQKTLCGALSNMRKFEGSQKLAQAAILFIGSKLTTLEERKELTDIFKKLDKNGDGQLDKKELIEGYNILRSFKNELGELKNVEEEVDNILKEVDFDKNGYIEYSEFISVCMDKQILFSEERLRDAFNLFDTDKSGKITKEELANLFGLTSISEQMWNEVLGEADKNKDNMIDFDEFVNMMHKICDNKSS
T1 sequence (Q2M2I8 whole entry): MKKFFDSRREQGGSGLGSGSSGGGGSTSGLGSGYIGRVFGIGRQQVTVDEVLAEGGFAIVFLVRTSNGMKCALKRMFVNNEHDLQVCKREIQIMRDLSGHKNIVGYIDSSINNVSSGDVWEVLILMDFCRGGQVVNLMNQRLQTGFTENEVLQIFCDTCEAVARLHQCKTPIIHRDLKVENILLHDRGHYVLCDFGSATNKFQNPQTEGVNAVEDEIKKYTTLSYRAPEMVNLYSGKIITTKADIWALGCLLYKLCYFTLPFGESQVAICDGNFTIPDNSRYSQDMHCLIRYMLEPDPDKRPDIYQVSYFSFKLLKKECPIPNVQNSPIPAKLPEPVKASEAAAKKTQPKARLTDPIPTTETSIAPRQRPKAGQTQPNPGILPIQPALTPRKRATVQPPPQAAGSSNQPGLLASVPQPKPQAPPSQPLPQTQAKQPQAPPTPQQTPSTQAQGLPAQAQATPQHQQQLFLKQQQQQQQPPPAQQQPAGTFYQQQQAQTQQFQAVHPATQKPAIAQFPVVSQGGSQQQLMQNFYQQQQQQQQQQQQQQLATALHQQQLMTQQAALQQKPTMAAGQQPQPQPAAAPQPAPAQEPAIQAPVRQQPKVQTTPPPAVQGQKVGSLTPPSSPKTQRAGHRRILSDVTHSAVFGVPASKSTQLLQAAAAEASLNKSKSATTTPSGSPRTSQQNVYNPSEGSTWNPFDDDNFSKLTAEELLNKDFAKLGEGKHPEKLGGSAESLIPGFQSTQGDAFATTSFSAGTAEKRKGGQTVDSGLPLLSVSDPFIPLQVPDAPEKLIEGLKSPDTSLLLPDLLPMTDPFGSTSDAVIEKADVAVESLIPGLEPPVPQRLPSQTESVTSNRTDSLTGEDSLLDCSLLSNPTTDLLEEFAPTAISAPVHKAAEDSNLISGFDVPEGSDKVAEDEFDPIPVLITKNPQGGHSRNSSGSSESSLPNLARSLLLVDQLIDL
T18 sequence (P05622 32-1098): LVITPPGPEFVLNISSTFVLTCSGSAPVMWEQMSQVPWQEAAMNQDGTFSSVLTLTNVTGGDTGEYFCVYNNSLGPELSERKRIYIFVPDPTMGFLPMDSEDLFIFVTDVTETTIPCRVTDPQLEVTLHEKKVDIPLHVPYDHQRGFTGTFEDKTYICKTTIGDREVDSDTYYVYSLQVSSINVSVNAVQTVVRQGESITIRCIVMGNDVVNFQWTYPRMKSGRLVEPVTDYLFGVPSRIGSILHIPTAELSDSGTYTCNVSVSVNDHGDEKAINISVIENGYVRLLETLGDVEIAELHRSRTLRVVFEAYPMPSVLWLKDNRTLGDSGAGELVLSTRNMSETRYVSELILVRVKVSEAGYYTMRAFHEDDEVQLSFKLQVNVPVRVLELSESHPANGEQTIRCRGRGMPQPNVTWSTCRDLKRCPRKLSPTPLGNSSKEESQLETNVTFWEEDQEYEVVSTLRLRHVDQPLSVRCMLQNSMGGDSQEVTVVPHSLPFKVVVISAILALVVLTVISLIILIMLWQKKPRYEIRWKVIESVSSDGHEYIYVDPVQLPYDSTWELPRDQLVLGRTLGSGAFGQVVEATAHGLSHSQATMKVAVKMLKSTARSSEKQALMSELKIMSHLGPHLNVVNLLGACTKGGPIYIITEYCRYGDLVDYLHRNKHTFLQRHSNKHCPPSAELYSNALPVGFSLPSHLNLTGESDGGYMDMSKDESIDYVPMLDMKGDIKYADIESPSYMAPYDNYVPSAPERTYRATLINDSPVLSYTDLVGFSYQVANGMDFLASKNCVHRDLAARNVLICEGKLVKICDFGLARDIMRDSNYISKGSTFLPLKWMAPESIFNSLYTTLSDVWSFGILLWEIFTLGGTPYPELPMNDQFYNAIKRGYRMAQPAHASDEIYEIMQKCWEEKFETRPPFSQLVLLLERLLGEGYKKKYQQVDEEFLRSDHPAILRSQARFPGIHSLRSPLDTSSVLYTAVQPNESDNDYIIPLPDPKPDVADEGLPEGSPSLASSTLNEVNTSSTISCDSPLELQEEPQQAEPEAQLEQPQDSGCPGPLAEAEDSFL
T3 sequence (Q14004 whole entry): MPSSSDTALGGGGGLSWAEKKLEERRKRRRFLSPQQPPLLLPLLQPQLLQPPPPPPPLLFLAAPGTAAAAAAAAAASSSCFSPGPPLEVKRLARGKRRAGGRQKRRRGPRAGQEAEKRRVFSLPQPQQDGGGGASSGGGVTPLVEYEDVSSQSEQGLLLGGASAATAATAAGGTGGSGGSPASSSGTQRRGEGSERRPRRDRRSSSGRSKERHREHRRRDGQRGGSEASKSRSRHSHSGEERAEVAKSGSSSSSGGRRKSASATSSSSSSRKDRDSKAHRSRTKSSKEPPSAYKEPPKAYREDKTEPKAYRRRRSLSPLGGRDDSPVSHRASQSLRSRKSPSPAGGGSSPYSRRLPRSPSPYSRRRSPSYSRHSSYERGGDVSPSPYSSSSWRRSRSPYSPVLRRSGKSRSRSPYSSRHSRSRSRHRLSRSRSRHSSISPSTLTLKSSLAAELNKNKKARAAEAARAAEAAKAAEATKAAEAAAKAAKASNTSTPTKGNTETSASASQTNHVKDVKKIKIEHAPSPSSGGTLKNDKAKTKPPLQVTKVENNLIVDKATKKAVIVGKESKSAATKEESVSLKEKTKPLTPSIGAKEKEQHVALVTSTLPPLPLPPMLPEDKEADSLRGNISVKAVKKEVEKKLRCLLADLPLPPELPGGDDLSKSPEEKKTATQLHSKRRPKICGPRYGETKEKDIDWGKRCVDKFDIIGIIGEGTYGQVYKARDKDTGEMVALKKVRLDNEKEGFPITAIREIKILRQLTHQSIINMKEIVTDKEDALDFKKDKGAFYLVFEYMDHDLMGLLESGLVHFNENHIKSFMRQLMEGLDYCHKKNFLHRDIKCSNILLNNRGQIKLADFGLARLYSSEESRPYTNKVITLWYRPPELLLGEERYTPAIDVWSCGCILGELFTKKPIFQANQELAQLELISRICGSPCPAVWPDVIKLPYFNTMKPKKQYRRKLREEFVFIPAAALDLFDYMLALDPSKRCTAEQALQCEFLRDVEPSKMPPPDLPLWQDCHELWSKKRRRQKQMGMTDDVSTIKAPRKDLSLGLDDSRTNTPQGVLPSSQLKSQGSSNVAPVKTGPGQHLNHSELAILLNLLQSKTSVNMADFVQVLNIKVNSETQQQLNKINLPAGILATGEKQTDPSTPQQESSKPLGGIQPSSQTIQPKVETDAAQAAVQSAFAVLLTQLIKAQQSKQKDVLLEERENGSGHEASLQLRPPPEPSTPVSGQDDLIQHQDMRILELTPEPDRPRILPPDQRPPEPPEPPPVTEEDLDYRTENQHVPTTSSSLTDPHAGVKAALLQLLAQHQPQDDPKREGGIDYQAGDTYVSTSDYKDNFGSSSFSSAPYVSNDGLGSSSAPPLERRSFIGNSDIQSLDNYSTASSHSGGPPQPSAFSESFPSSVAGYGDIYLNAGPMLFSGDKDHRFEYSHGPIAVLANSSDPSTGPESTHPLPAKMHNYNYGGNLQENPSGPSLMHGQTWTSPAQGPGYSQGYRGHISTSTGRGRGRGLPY

In the case of `CCOP(=O)(CN1CCC(COc2cc3nccc(Oc4ccc(NC(=O)C5(C(=O)Nc6ccc(F)cc6)CC5)cc4F)c3cc2OC)CC1)OCC` [Example 10, N1-[4-[[7-[[1-(diethoxyphosphorylmethyl)-4-piperidinyl]methoxyl]-6-methoxyl-4-quinolyl]oxyl]-3-fluorophenyl]-N1′-(4-fluorophenyl)cyclopropane-1,1-dicarboxamide], the “% Ctrl@1000 nM” value [1] was 91 % Ctrl, the “% Ctrl@1000 nM” value [2] was 100 % Ctrl and the “% Ctrl@1000 nM” value [3] was 100 % Ctrl. For the same compound, the “% Ctrl@1000 nM” value [4] was 100 % Ctrl, the “% Ctrl@1000 nM” value [5] was 100 % Ctrl and the “% Ctrl@1000 nM” value [6] was 100 % Ctrl. The “% Ctrl@1000 nM” value [7] was 100 % Ctrl, the “% Ctrl@1000 nM” value [8] was 100 % Ctrl and the “% Ctrl@1000 nM” value [9] was 100 % Ctrl. For the same compound, the “% Ctrl@1000 nM” value [10] was 100 % Ctrl, the “% Ctrl@1000 nM” value [11] was 80 % Ctrl and the “% Ctrl@1000 nM” value [12] was 100 % Ctrl. For the same compound, the “% Ctrl@1000 nM” value [13] was 100 % Ctrl, the “% Ctrl@1000 nM” value [14] was 100 % Ctrl and the “% Ctrl@1000 nM” value [15] was 84 % Ctrl. For the same compound, the “% Ctrl@1000 nM” value [16] was 100 % Ctrl, the “% Ctrl@1000 nM” value [17] was 96 % Ctrl and the pIC50 [18] was 7.89. It also gave a pIC50 [19] of 9.37.
